Holding throughout (type): cell-based
A short description of one data set: in vitro. The following applies: human. The procedure: (§1) FIG. 3: Cell viability of […] cells treated with 2DG (1 mM or 4 mM) and of PBMCs treated with 2DG (1 mM) alone or in combination with Rocaglamide (0.1 μM, 0.025 μM, 0.01 μM).
The next data set has as its system C3. Kind of data set: MTT cell viability assay, tumor cell line (Example 1). As to conditions: 48 h, relative to untreated cells, read-out: Cell viability after treatment. As to the method:
(§2) The MTT (MethylThiazol Tetrazolium) assay was used to determine cell viability. The MTT assay is a colorimetric method for measuring the activity of cellular enzymes that reduce the tetrazolium dye, MTT, to its insoluble formazan, giving a purple color. This method was used in the present experiments to reflect the number of viable cells present and to measure cytotoxicity (loss of viable cells).
(§3) Cells were plated in flat-bottom 96-well plates at a cell number of 10,000 in 100 p of medium per well. RPMI 1640 (Roswell Park Memorial Institute, Gibco, City, State) supplemented with fetal bovine serum (10%) and penicillin/streptomycin (1%) medium was used for cell culturing and plating. After plating, cells were incubated at 37° C. in an incubator at 5% CO2 concentration for 24 hours before the beginning of treatment. After that, when cells became adherent, the medium was removed and 2-DG and rocaglamide were added to the cells at a concentration of 1 mM and 0.1 μM, respectively. After 48 hours of incubation, 20 μl of MTT reagent was added to each well. Cells were incubated for 1 hour at 37° C. before colorimetric assessment
(§4) To determine the amount of viable cells after the treatment, the absorption was measured at a wave length of 485 nm with the help of an ELISA reader device (TECAN GENios, Austria). All measurements were carried out in quadruplicate. Mean values and standard deviations were calculated from the measured values after background subtraction. As background, absorption was measured in wells containing medium alone.
(In general: Tetrazolium assays rely on reduction of a dye to a coloured formazan, in cell work by metabolically active cells.)

In another data set the test system is SMA560. The data set is described as above. The following applies: Mus musculus, 48 h, relative to untreated cells, read-out: Cell viability after treatment. The procedure:
as §2, §3, §4

The subject of a further data set is GL261. The description is as above. The following applies: Mus musculus, 48 h, relative to untreated cells, read-out: Cell viability after treatment. As to the method: as §2, §3, §4
For a further data set, the system named is HT29. The description is as above. As to conditions: Homo sapiens, 48 h, relative to untreated cells, read-out: Cell viability after treatment. The procedure: as §2, §3, §4
For the next data set, the system named is K073. The data set is described as above. As to conditions: 48 h, relative to untreated cells, read-out: Cell viability after treatment. As to the method: as §2, §3, §4
The next data set concerns LNT229. Described as above. The following applies: 48 h, relative to untreated cells, read-out: Cell viability after treatment. The procedure: as §2, §3, §4
The subject of the next data set is HCT116. The description is as above. As to conditions: Homo sapiens, 48 h, relative to untreated cells, read-out: Cell viability after treatment. The procedure: as §2, §3, §4
Another data set concerns NCH89. Described as above. As to conditions: Homo sapiens, 48 h, relative to untreated cells, read-out: Cell viability after treatment. The procedure:
as §2, §3, §4

A further data set has as its system U373. The description is as above. As to conditions: Homo sapiens, U373 MG, 48 h, relative to untreated cells, read-out: Cell viability after treatment. The procedure: as §2, §3, §4
The next data set deals with SW480. Described as above. As to conditions: Homo sapiens, 48 h, relative to untreated cells, read-out: Cell viability after treatment. As to the method: as §2, §3, §4
Another data set deals with NCH82. The description is as above. The following applies: Homo sapiens, 48 h, relative to untreated cells, read-out: Cell viability after treatment. As to the method:
as §2, §3, §4

In the next data set the test system is H146. Described as above. The following applies: Homo sapiens, 48 h, relative to untreated cells, read-out: Cell viability after treatment. The procedure: as §2, §3, §4
The next data set concerns RKO. The data set is described as above. The following applies: Homo sapiens, 48 h, relative to untreated cells, read-out: Cell viability after treatment. As to the method: as §2, §3, §4
In another data set the test system is U138MG cells. Kind of data set: Cell viability with 2DG alone or combined with Rocaglamide (Example 4, FIG. 3). The following applies: Mus musculus, U138-MG, 4 mM 2DG alone. As to the method:
as §1
In order to evaluate the potential of Rocaglamide to reduce the dose of 2DG while at the same time maintaining its antitumoral effect, combinations of different doses of 2DG with Rocaglamide were evaluated in U138MG cells ([…]). The cell-killing effect of the combination of Rocaglamide and 2DG was then compared with the effect of 2DG alone.

Another data set deals with tumor cell lines. Kind of data set: MTT cell viability assay, number of responding cell lines (Example 1). As to conditions: 2-DG 1 mM alone; 48 h. The procedure: as §2
Cells were plated in flat-bottom 96-well plates at a cell number of 10,000 in 100 p of medium per well. RPMI 1640 (Roswell Park Memorial Institute, Gibco, City, State) supplemented with fetal bovine serum (10%) and penicillin/streptomycin (1%) medium was used for cell culturing and plating. After plating, cells were incubated at 37° C. in an incubator at 5% CO2 concentration for 24 hours before the beginning of treatment. […]
To determine the amount of viable cells after the treatment, the absorption was measured at a wave length of 485 nm with the help of an ELISA reader device (TECAN GENios, Austria). […] Mean values and standard deviations were calculated from the measured values after background subtraction. As background, absorption was measured in wells containing medium alone.
2-DG treatment at a concentration of 1 mM induced a significant response (reduction of viability to less than 80% of the untreated cells) in 9 out of 15 cell lines analyzed.

In a further data set the test system is HCT116 cells. The experiment in a line: MTT assay, IC50 of flavaglines with and without 2DG (Example 2). As to conditions: HCT116 (FIG. 1A); flavagline 10-100 nM with 1 mM 2DG versus flavagline alone; 48 h. An excerpt:
(§5) FIG. 1: Determination of IC50 of Rocaglamide and FL3. Treatment schemes are illustrated by different line patterns explained on the right side of each graphic. Solid lines with squares represent treatment with Rocaglamide, dotted lines with circles represent treatment with Rocaglamide and 2DG in combination, dotted lines with triangles represent treatment with FL3, and dotted lines with rhombus represent treatment with FL3 and 2DG in combination. X axis represents treatment doses of flavaglines (Rocaglamide or FL3), y axis represents relative cell viability (determined by MT assay) in %; cells not treated with flavaglines are used as a reference (corresponding to 100% viability). A. HCT116 cells. B. HT29 cells. C: normal human PBMCs.
(§6) The MTT (MethylThiazol Tetrazolium) assay was the same as in Example 1. Colorectal cancer cells (HCT116 and HT29) as well as normal human PBMCs were plated in flat-bottom 96-well plates at a cell number of 10,000 and 100,000, respectively, in 100 μl of medium per well. […] (Roswell Park Memorial Institute, Gibco, Paisley, UK) supplemented with 10% fetal bovine serum and 1% penicillin/streptomycin (Gibco, N.Y., USA) medium was used for cell culturing and plating of tumor cells. Medium for PBMCs consisting of Iscove's modified DMEM (IMDM) supplemented by 10% human AB serum, 1% L-glutamin and 0,05% gentamycin was used for plating PBMCs. After plating, rocaglamide and FL3 were applied at five increasing concentrations (10, 25, 50, 75 and 100 nM) as single substances and in combination with 1 mM 2DG. Cells were then incubated with drugs in a CO2 chamber at 5% CO2 concentration (Memmert Incubator, Büchenbach, Germany) for 48 hours. Afterwards, 20 μl of MTT reagent (Promega, Madison, Wis., USA) were added to each well. Cells were incubated for 1 hour at 37° C. as above. To determine the amount of viable cells after the treatment the absorption was measured at a wave length of 485 nm in ELISA reader device (TECAN GENios, Salzburg, Austria). All measurements were carried out in quadruplicates.
(§7) Mean values and standard deviations were calculated from the measured values after background subtraction. As background, absorption was measured in wells containing only medium.

Another data set deals with HT29 cells. The description is as above. As to conditions: HT29 (FIG. 1B); flavagline 10-100 nM with 1 mM 2DG versus flavagline alone; 48 h.
Text: as §5, §6, §7

The test system of another data set is normal human PBMCs. The data set is described as above. The following applies: normal human PBMCs (FIG. 1C); flavagline 10-100 nM with 1 mM 2DG versus flavagline alone; 48 h.
Text: as §5, §6, §7

Broadly, the viability is a read-out of living cells in per cent, often relative to untreated cells. `OC[C@H]1OC(O)C[C@@H](O)[C@@H]1O` (stereo partly drawn) [2DG, (4R,5S,6R)-6-(hydroxymethyl)oxane-2,4,5-triol]: the viability at 48 h, 1 mM in “in vitro” is 81.7%. For the same molecule, the viability at 1000 µM came to 103% in the data set with C3 (2DG 1 mM alone); 102% with SMA560 (SMA-560, 2DG 1 mM alone); 63.8% with GL261 (2DG 1 mM alone); 87.5% in the data set with HT29 (HT-29, 2DG 1 mM alone); 89.6% with K073 (2DG 1 mM alone); 113% in the data set with LNT229 (2DG 1 mM alone). In addition, the viability at 1000 µM in the data set on HCT116 (HCT-116, 2DG 1 mM alone) is 82%; with NCH89 (2DG 1 mM alone) it was 83.7%; in the data set with U373 (2DG 1 mM alone), 95.6%; with SW480 (2DG 1 mM alone) it was 70.8%; in the data set with NCH82 (2DG 1 mM alone), 68.3%; in the data set on H146 (NCI-H146, 2DG 1 mM alone) it was 90.5%. Further, the viability at 1000 µM with RKO (2DG 1 mM alone) was 118%. Further, in the data set on U138MG cells (U136MG cells, read-out: cell viability compared to the untreated control), the viability at 4000 µM was determined as 46%. The cytotoxicity at 4000 µM in the data set on U138MG cells (U138MG cells, read-out: reduction of cell viability compared to the untreated control) is 54%. Also, the “cell lines with significant response (reduction of viability to less than 80% of the untreated cells)” value in the data set on tumor cell lines was 9 out of 15.
On to `COc1cc(OC)c2c(c1)O[C@@]1(c3ccc(Br)cc3)[C@H](c3ccccc3)C[C@@H](O)[C@@]21O` [FL3, (1R,3S,3aR,8bS)-3a-(4-Bromophenyl)-6,8-dimethoxy-3-phenyl-2,3,3a,8b-tetrahydro-1H-cyclopenta[b]benzofuran-1,8b-diol], for which the “change of IC50 of the flavagline in combination with 2DG” value in the data set with HCT116 cells and in the data set on HT29 cells was “substantially reduced” each time. In addition, the “change of IC50 of the flavagline in the presence of 2DG” value in the data set with normal human PBMCs is “increased”.
Consider `COc1ccc([C@@]23Oc4cc(OC)cc(OC)c4[C@]2(O)[C@H](O)[C@H](C(=O)N(C)C)[C@H]3c2ccccc2)cc1` [Rocaglamide, (1R,2R,3S,3aR,8bS)-1,8b-dihydroxy-6,8-dimethoxy-3a-(4-methoxyphenyl)-N,N-dimethyl-3-phenyl-2,3-dihydro-1H-cyclopenta[b][1]benzofuran-2-carboxamide], for which the “change of IC50 of the flavagline in combination with 2DG” value in the data set on HCT116 cells and in the data set with HT29 cells was “substantially reduced” each time. Moreover, the “change of IC50 of the flavagline in the presence of 2DG” value in the data set with normal human PBMCs is listed as “increased”. The viability at 0.1 µM with C3 (rocaglamide 0.1 μM alone) amounted to 45.3%; in the data set on SMA560 (SMA-560, rocaglamide 0.1 μM alone), 92.8%; with GL261 (rocaglamide 0.1 μM alone), 58.2%; in the data set with HT29 (HT-29, rocaglamide 0.1 μM alone), 52.3%; in the data set on K073 (rocaglamide 0.1 μM alone) it was 35.9%; in the data set on LNT229 (rocaglamide 0.1 μM alone), 100%. The viability at 0.1 µM with HCT116 (HCT-116, rocaglamide 0.1 μM alone) stood at 14.8%; with NCH89 (rocaglamide 0.1 μM alone), 56.6%; in the data set on U373 (rocaglamide 0.1 μM alone) it was 76.4%; in the data set on SW480 (rocaglamide 0.1 μM alone), 59.5%; in the data set with NCH82 (rocaglamide 0.1 μM alone) it was 63.2%; in the data set with H146 (NCI-H146, rocaglamide 0.1 μM alone), 47.3%. Also, the viability at 0.1 µM in the data set with RKO (rocaglamide 0.1 μM alone) was found to be 42.9%.

(Values after US20180169123A1, “COMBINATION THERAPY WITH A FLAVAGLINE AND 2-DEOXYGLUCOSE” (Ruprecht-Karls-Universitat Heidelberg, priority 2015, published 2018).)
